Broadly, the IC50 is the concentration needed to halve the response being measured. Read a high IC50 as weaker potency in that assay.

Counter-ions that a name gives are not always drawn. A value given as a limit tells only on which side of the number the result lay.

The target in the assay is T1, PKBα (Homo sapiens, UniProt P31749).
T1 construct: the full length PKBα and a kinase domain of PKBα with pleckstrin domain (amino acids 1-117) deleted
T1 sequence (P31749 118-480 limits assumed): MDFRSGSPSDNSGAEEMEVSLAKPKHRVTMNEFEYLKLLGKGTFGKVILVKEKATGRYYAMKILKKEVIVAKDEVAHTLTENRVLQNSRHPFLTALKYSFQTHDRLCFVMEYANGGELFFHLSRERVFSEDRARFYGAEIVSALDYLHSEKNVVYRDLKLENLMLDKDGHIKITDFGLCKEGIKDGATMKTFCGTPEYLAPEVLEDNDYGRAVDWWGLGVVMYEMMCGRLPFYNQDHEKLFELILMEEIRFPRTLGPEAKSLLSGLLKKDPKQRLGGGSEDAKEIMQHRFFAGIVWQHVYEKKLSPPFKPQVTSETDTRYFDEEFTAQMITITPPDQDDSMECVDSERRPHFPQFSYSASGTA
The assay can be described thus: PKB kinase assay (P33-labeled ATP, synthetic peptide substrate, filter plate capture). In kind it is biochemical. Conditions: with respect to PKBα. The text has this:
The kinase assay for evaluating PKB activity comprises active PKB enzymes, a PKB specific substrate, and P^33-labeled ATP. Two form of PKBα enzymes were used, the full length PKBα and a kinase domain of PKBα with pleckstrin domain (amino acids 1-117) deleted. Both PKB enzymes were obtained from Upstate cell signaling solutions (Cat. #14-276 and 14-341). The PKB substrate used is a synthetic peptide (ARKRERTYSFGHHA (SEQ ID NO: 1)) as described in Obata et al., J. Biol. Chem. 275 (46), 36108-36115 (2000). The phosphorylated substrate was captured by a phosphocellulose membrane filter plate (MILLIPORE) and measured by a Wallac Microbeta liquid scintillation counter (Perkin Elmer). Table 1 provides the IC50 values obtained for each of the examples with respect to PKBα.
Take `N[C@H](CNc1nnc(-c2cc3ccncc3s2)s1)Cc1ccc(C(F)(F)F)cc1` [Example 10, N-((S)-2-Amino-3-(4-(trifluoromethyl)phenyl)propyl)-5-(thieno[2,3-c]pyridin-2-yl)-1,3,4-thiadiazol-2-amine]: the IC50 is less than 50 nM.
The figure for `N[C@H](CNc1nnc(-c2ccc3cnc(F)cc3c2)s1)Cc1ccc(C(F)(F)F)cc1` [Example 43, N-((S)-2-Amino-3-(4-(trifluoromethyl)phenyl)propyl)-5-(3-fluoroisoquinolin-6-yl)-1,3,4-thiadiazol-2-amine trifluoroacetate] is less than 50 nM.
Turning to `N[C@H](CNc1nnc(-c2cc3c(Cl)cncc3s2)s1)Cc1ccccc1` [Example 12, N-((S)-2-Amino-3-phenylpropyl)-5-(4-chlorothieno[2,3-c]pyridin-2-yl)-1,3,4-thiadiazol-2-amine], the IC50 was in the range of 50 to 1000 nM.
The figure for `N[C@H](CNc1nnc(-c2ccc3cnc(F)cc3c2)s1)Cc1ccc(C(F)(F)F)nc1` [Example 44, N-((S)-2-Amino-3-(6-(trifluoromethyl)pyridin-3-yl)propyl)-5-(3-fluoroisoquinolin-6-yl)-1,3,4-thiadiazol-2-amine trifluoroacetate] is less than 50 nM.
The figure for `O[C@H]1CCCC[C@H]1CNc1nnc(-c2ccc3cnccc3c2)s1` [Example 21, (1S,2S)-2-((5-(Isoquinolin-6-yl)-1,3,4-thiadiazol-2-ylamino)methyl)cyclohexanol] is 50 to 1000 nM; for `N[C@H](CNc1nnc(-c2ccc3c(c2)CC(=O)N3)s1)[C@@H](O)c1ccc(C(F)(F)F)cc1` [Example 51, 5-(5-((2R,3S)-2-Amino-3-hydroxy-3-(4-(trifluoromethyl)phenyl)propylamino)-1,3,4-thiadiazol-2-yl)indolin-2-one trifluoroacetate] it is less than 50 nM; for `CCC(O)CNc1nnc(-c2ccc3cnccc3c2)s1` (racemic) [Example 23, (±)-1-(5-(Isoquinolin-6-yl)-1,3,4-thiadiazol-2-ylamino)butan-2-ol] it is 1000 to 10000 nM.
`N[C@H](COc1nnc(-c2ccc3cnccc3c2)s1)Cc1ccc(C(F)(F)F)cc1` [Example 32, (2S)-1-(5-(isoquinolin-6-yl)-1,3,4-thiadiazol-2-yloxy)-3-(4-(trifluoromethyl)phenyl)propan-2-amine] showed an IC50 of 50 to 1000 nM.
Regarding `N[C@H](CCc1nnc(-c2ccc3cnc(F)cc3c2)s1)Cc1ccc(C(F)(F)F)nc1` [Example 45, (2R)-4-(5-(3-Fluoroisoquinolin-6-yl)-1,3,4-thiadiazol-2-yl)-1-(6-(trifluoromethyl)pyridin-3-yl)butan-2-amine], the concentration for half-maximal inhibition (IC50) is less than 50 nM.
The figure for `OC[C@H](Nc1nnc(-c2ccc3cnccc3c2)s1)[C@@H](O)c1ccccc1` [Example 16, (1S,2S)-2-(5-(Isoquinolin-6-yl)-1,3,4-thiadiazol-2-ylamino)-1-phenylpropane-1,3-diol] is 1000 to 10000 nM; for `CC(Nc1nnc(-c2ccc3cnccc3c2)s1)c1ccco1` (racemic) [Example 22, (±)-N-(1-(Furan-2-yl)ethyl)-5-(isoquinolin-6-yl)-1,3,4-thiadiazol-2-amine] it is 1000 to 10000 nM; for `O[C@@H]1CCCC[C@H]1CNc1nnc(-c2ccc3cnccc3c2)s1` [Example 17, (1R,2S)-2-((5-(Isoquinolin-6-yl)-1,3,4-thiadiazol-2-ylamino)methyl)cyclohexanol] it is 50 to 1000 nM.
On to `O=C(Nc1nnc(-c2ccc3cnccc3c2)s1)[C@@H]1NCC[C@@H]1c1ccccc1` (racemic) [Example 26, (±)-cis-N-(5-(Isoquinolin-6-yl)-1,3,4-thiadiazol-2-yl)-3-phenylpyrrolidine-2-carboxamide], for which the IC50 was in the range of 50 to 1000 nM.

The values are drawn from US7919504B2, “Thiadiazole modulators of PKB” (Amgen Inc., priority 2007, dated 2011).
